In patent US20220127258A1, “AROMATIC RING OR HETEROAROMATIC RING COMPOUNDS, PREPARATION METHOD THEREFOR AND MEDICAL USE THEREOF” (The National Institutes of Pharmaceutical R&D Co., Ltd., priority 2019, published 2022):
pIC50: −log10 of the molar value.

Columns and labels:
[1] = tested on: cholestasis rat induced by ANIT; assay: Efficacy on the cholestasis rat model induced by 1-naphthyl isothiocyanate (ANIT); format: in vivo, SD rats; parameters: ALT / AST / GGT / TBA: unit not given here; conditions: for level of ALT, AST, GGT and TBA in the serum of ANIT rat (in words): 3 and 10 mg/kg/d, conclusion of Test Example 2; for ALT / AST / GGT / TBA: serum, 4 days, ANIT rat
Description: Animals: SD rats, male, 7 to 8 weeks old, weight: 220 to 240 g, purchased from Beijing Vital River Laboratory Animal Technology Co., Ltd., SPF grade, Certificate No.: SCXK (Beijing) 2016-0011, license issuing administration: Beijing Municipal Commission of Science and Technology.
Sample formulation: The compound of the present invention was added to DMSO, and dissolved completely by ultrasound. 0.5% CMC-Na was added to constant volume (DMSO: 0.5% CMC-Na=1:99), and the solution was homogenized by ultrasound for later use.
After 3 to 5 days of acclimation, the animals were divided into 20 groups according to body weight: normal group, model group, Example 8 (3 mg/kg/d, 10 mg/kg/d) group, Example 11 (3 mg/kg/d, 10 mg/kg/d) group, Example 12 (3 mg/kg/d, 10 mg/kg/d) group, Example 14 (3 mg/kg/d, 10 mg/kg/d) group, Example 20 (3 mg/kg/d, 10 mg/kg/d) group, Example 22 (3 mg/kg/d, 10 mg/kg/d) group, Example 26 (3 mg/kg/d, 10 mg/kg/d) group, Example 28 (3 mg/kg/d, 10 mg/kg/d) group, and Example 29 (3 mg/kg/d, 10 mg/kg/d) group, with 10 rats for each group. Intragastric administration was conducted with an administration volume of 10 mL/kg, once a day, for a total of 4 days. On Day 2, ANIT (1-naphthyl isothiocyanate, Macklin, purity: 98%, item number: N814658, CAS number: 551-06-4, specification: 5 g/bottle, storage conditions: 2 to 8 degrees, batch number: C10116101) with a dose of 50 mg/kg and an administration volume of 5 mL/kg was administered intragastrically once to each animal (except for animals in the normal group) 4 hours after the administration. The animals were fasted on Day 4 morning. The animals were anesthetized by isoflurane inhalation using a small animal anesthesia machine. Blood was collected from the venous plexus behind the eyeball using a capillary glass tube (about 1 ml per animal), and then left to stand for about one hour. It was centrifuged at 3500 rpm for 10 minutes to obtain the serum. ALT, AST, GGT and TBA indexes as well as the plasma concentration of the compound were determined using an AU480 automatic biochemical analysis system (BECKMAN COULTER). Liver was collected, weighed, and cutted into pieces. Normal saline was added (liver weight: normal saline=1:2), and the mixture was homogenized and freezed. The concentration of the compound in liver was determined using an ultra performance liquid chromatograph (Shimadzu, LC 30AD) and triple quadrupole mass spectrometer (AB, TQ5500).

hERG channel = biological target: T1, hERG channel (Homo sapiens, UniProt Q12809); assay: Effect on hERG channel, whole-cell membrane clamp; format: cell-based; conditions: for hERG current inhibition ratio: n=3
T1 construct: host or cells: HEK293 stably expressing hERG
Description: Extracellular fluid: 140 mM NaCl, 3.5 mM KCl, 1 mM MgCl2, 2 mM CaCl2, 10 mM glucose, 10 mM HEPES, 1.25 mM NaH2PO4, pH=7.4 (adjusted by NaOH).
Intracellular fluid: 20 mM KCl, 115 mM K-aspartic acid, 1 mM MgCl2, 5 mM EGTA, 10 mM HEPES, 2 mM Na2-ATP, pH=7.2 (adjusted by KOH).
The stock solution of the compound of Example 8 of the present invention (30.26 mM solution in DMSO) was successively diluted with 10 mL of extracellular fluid to obtain 0.3 μM, 1 μM, 3 μM, […], and 30 μM solutions.
The HEK293 cell line stably expressing the hERG potassium channel (supplier Creacell, catalog number A-0302) was cultured in DMEM medium containing 10% fetal bovine serum and 0.8 mg/mL G418. The culture temperature was 37° C., and the carbon dioxide concentration was 5%.
Cell passage: The old medium was removed, and the cells were washed with PBS once. 1 mL of TrypLE™ expression solution was added, and the cells were incubated at 37° C. for 0.5 minutes. When the cells detached from the bottom of the dish, 5 mL of 37° C. pre-warmed complete medium (DMEM medium containing 10% fetal bovine serum and 0.8 mg/mL G418) was added. The cell suspension was gently pipetted to separate the aggregated cells. The cell suspension was transferred to a sterile centrifuge tube, and centrifuged at 1000 rpm for 5 minutes to collect the cells. Expansion or maintenance culture, the cells were seeded in a 6 cm cell culture dish, and each cell culture dish was seeded with 2.5×10^5 cells (final volume: 5 mL). In order to maintain the electrophysiological activity of the cell, the cell density must not exceed 80%. The cells were separated by TrypLE™ expression solution, and 3×10^3 cells were placed on a cover slide and cultured in a 24-well plate (final volume: 500 μL). Membrane clamp test was carried out after 18 hours.
The voltage stimulus protocol of the whole-cell membrane clamp for recording the whole-cell hERG potassium current is as follows. When a whole-cell sealing was formed, the membrane clamp was disposed at −80 mV. The clamp voltage was depolarized from −80 mV to +30 mV for 2.5 seconds, and then quickly maintained at −50 mV for 4 seconds, which can excite the tail current of the hERG channel. −50 mV was used for leakage current detection in the test. The data was collected repeatly every 10 seconds to observe the effect of the compound on hERG tail current. The test data was collected by EPC-10 amplifier (HEKA) and stored in PatchMaster (HEKA) software.
A capillary glass tube (BF150-86-10, Sutter Instruments) was prepared into a recording electrode using a microelectrode puller (P97, Sutter Instruments). Microelectrode manipulator (MP285, Sutter Instruments) was manipulated under an inverted microscope (IX71, Olympus) to contact the recording electrode to the cell, and suction was applied under negative pressure to form a […]. After forming the […], a rapid capacitance compensation was performed, then a negative pressure was applied to break the cell membrane and create a whole-cell recording mode. A slow capacitor compensation was performed, and the membrane capacitance and series resistance were recorded without leakage compensation.
When the hERG current of the whole-cell record was stable, administration was conducted. Each concentration was tested for 5 minutes (or until the current was stable) before testing the next concentration. Multiple concentrations were tested for each test compound. The cover slide seeded with the cell was placed in a recording bath of an inverted microscope. The test compound and the compound-free extracellular fluid flowed through the recording chamber by gravity perfusion from low concentrations to high concentrations to act on the cell. Liquid exchange was performed using a vacuum pump in the record. For each cell, the current detected in the compound-free extracellular fluid was used as the control. Three cells were repeatly tested independently. All electrophysiological experiments were carried out at room temperature.

T1 sequence (Q12809 whole entry): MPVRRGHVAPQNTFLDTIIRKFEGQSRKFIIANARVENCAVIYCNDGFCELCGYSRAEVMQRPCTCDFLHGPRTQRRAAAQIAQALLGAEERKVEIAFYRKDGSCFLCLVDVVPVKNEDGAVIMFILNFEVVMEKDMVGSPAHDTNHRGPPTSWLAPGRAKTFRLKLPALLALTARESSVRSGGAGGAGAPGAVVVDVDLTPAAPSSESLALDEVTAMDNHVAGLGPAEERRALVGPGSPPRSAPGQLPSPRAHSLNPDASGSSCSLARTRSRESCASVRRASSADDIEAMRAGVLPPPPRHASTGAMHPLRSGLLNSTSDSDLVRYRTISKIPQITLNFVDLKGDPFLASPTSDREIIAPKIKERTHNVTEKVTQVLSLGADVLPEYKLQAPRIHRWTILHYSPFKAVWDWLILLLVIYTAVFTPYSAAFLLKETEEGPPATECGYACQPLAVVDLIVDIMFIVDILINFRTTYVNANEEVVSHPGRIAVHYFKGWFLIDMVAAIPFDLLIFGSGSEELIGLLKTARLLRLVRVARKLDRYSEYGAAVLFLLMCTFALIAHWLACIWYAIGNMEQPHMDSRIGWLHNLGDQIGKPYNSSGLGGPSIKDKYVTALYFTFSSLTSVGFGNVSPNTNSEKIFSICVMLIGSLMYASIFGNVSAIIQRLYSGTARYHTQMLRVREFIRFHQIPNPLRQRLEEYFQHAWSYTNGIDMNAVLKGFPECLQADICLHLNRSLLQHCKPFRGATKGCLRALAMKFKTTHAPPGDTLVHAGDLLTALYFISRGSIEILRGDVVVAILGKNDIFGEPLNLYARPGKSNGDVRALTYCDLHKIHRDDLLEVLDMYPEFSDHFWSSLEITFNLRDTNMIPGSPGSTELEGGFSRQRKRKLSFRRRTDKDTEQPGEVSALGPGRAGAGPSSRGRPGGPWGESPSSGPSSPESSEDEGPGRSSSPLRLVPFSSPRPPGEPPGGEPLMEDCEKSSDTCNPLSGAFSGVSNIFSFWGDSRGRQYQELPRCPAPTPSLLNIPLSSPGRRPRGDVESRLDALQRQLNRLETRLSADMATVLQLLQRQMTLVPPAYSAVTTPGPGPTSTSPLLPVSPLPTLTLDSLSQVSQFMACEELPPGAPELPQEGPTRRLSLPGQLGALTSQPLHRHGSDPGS

Structure (SMILES): O=C(O)c1ccc(-c2nnc(N3[C@@H]4CC[C@H]3C[C@@H](OCc3c(-c5c(Cl)cccc5Cl)noc3C3CC3)C4)o2)s1 [Example 11]
- level of ALT, AST, GGT and TBA in the serum of ANIT rat (in words) [1]: significantly reduce
- ALT ([1]; 3 mg/kg/d intragastric): 276.3 ± 118.0
- AST ([1]; 3 mg/kg/d intragastric): 761.3 ± 253.7
- GGT ([1]; 3 mg/kg/d intragastric): 4.9 ± 0.9
- TBA ([1]; 3 mg/kg/d intragastric): 243.4 ± 72.4
- ALT ([1]; 10 mg/kg/d intragastric): 180.3 ± 107.8
- AST ([1]; 10 mg/kg/d intragastric): 466.1 ± 242.4
- GGT ([1]; 10 mg/kg/d intragastric): 3.7 ± 1.5
- TBA ([1]; 10 mg/kg/d intragastric): 190.3 ± 140.7

Structure (SMILES): Cc1cc(C(=O)O)ccc1-c1nnc(N2[C@@H]3CC[C@H]2C[C@@H](OCc2c(-c4c(Cl)cccc4Cl)noc2C2CC2)C3)o1 [Example 14]
- level of ALT, AST, GGT and TBA in the serum of ANIT rat (in words) [1]: significantly reduce
- ALT ([1]; 3 mg/kg/d intragastric): 220.3 ± 104.0
- AST ([1]; 3 mg/kg/d intragastric): 643.3 ± 239.3
- GGT ([1]; 3 mg/kg/d intragastric): 4.6 ± 1.3
- TBA ([1]; 3 mg/kg/d intragastric): 235.8 ± 80.1
- ALT ([1]; 10 mg/kg/d intragastric): 45.5 ± 11.9
- AST ([1]; 10 mg/kg/d intragastric): 181.4 ± 20.8
- GGT ([1]; 10 mg/kg/d intragastric): 1.7 ± 0.4
- TBA ([1]; 10 mg/kg/d intragastric): 20.3 ± 12.3

Structure (SMILES): O=C(O)c1ccc(-c2nnc(N3[C@@H]4CC[C@H]3C[C@@H](OCc3c(-c5ccccc5OC(F)(F)F)noc3C3CC3)C4)o2)cc1 [Example 22, 4-(5-((1R,3r,5S)-3-((5-cyclopropyl-3-(2-(trifluoromethoxy)phenyl)isoxazol-4-yl)methoxy)-8-azabicyclo[3.2.1]octan-8-yl)-1,3,4-oxadiazol-2-yl)benzoic acid]
- level of ALT, AST, GGT and TBA in the serum of ANIT rat (in words) [1]: significantly reduce
- ALT ([1]; 3 mg/kg/d intragastric): 100.8 ± 90.9
- AST ([1]; 3 mg/kg/d intragastric): 324.8 ± 313.1
- GGT ([1]; 3 mg/kg/d intragastric): 2.7 ± 1.7
- TBA ([1]; 3 mg/kg/d intragastric): 73.3 ± 103.2
- ALT ([1]; 10 mg/kg/d intragastric): 44.5 ± 8.1
- AST ([1]; 10 mg/kg/d intragastric): 163.3 ± 21.3
- GGT ([1]; 10 mg/kg/d intragastric): 1.8 ± 0.5
- TBA ([1]; 10 mg/kg/d intragastric): 27.4 ± 13.6

Structure (SMILES): O=C(O)c1ccc(-c2nnc(N3[C@@H]4CC[C@H]3C[C@@H](OCc3c(-c5c(Cl)cccc5Cl)noc3C3CC3)C4)o2)cc1 [Example 8, 4-(5-((1R,3r,5S)-3-((5-cyclopropyl-3-(2,6-dichlorophenyl)isoxazol-4-yl)methoxy)-8-azabicyclo[3.2.1]octan-8-yl)-1,3,4-oxadiazol-2-yl)benzoic acid]
- level of ALT, AST, GGT and TBA in the serum of ANIT rat (in words) [1]: significantly reduce
- ALT ([1]; 3 mg/kg/d intragastric): 164.8 ± 85.0
- AST ([1]; 3 mg/kg/d intragastric): 401.8 ± 172.8
- GGT ([1]; 3 mg/kg/d intragastric): 2.5 ± 0.7
- TBA ([1]; 3 mg/kg/d intragastric): 100.0 ± 99.8
- ALT ([1]; 10 mg/kg/d intragastric): 79.9 ± 98.7
- AST ([1]; 10 mg/kg/d intragastric): 243.5 ± 192.6
- GGT ([1]; 10 mg/kg/d intragastric): 2.0 ± 0.5
- TBA ([1]; 10 mg/kg/d intragastric): 32.9 ± 68.0
- hERG current inhibition ratio (hERG channel; 0.3 μM, HEK293 cell line stably expressing hERG): −2.37 ± 0.62%
- hERG current inhibition ratio (hERG channel; 1 μM, HEK293 cell line stably expressing hERG): −3.09 ± 0.30%
- hERG current inhibition ratio (hERG channel; 3 μM, HEK293 cell line stably expressing hERG): 0.48 ± 1.78%
- hERG current inhibition ratio (hERG channel; 10 μM, HEK293 cell line stably expressing hERG): 12.65 ± 2.25%
- hERG current inhibition ratio (hERG channel; 30 μM, HEK293 cell line stably expressing hERG): 31.67 ± 1.86%
- pIC50 (hERG channel; HEK293 cell line stably expressing hERG, whole-cell membrane clamp, read-out: hERG semi-inhibiting concentration (IC50)): < 4.52
- inhibitory effect on hERG channel (in words) (hERG channel; conclusion of Test Example 3): no inhibitory effect on hERG channel
